The subject of data set [1] is Trichophyton rubrum (ATCCMYA4607). Kind of data set: Antifungal activity test, minimum inhibitory concentration (MIC100). The following applies: Sabouraud medium, 32° C. for 72 hours. Format: cell-based. The protocol:
Trichophyton rubrum was cultured on a Sabouraud medium at 32° C. for 168 hours to form spores. Mycelia were peeled from a medium surface and collected into a tube, physiological saline solution (OTSUKA NORMAL SALINE; containing the equivalent of 9 g of sodium chloride in 1000 mL) was added thereto, and the entire mixture was mixed and dispersed with a disposable loop (Type 1 (1 μL)) to collect a spore suspension containing mycelia. The spore suspension containing mycelia was filtered through a cell strainer (+40 μm). Spores were collected from a filtrate by centrifugation (3500 rpm, 5 minutes), and washed twice with physiological saline to prepare a spore suspension (1×10^6 cells/mL). 10 μL of the spore suspension was inoculated into the Sabouraud medium to which the test compound dissolved in DMSO was added so as to have a predetermined concentration. Trichophyton rubrum was cultured at 32° C. for 72 hours, and then the presence or absence of the development of colonies was examined to determine a minimum inhibitory concentration (MIC100).
A minimum inhibitory concentration (MIC100) for Trichophyton rubrum (ATCCMYA4607) was determined in the same method as in Test Example 12 except that the hydrate crystal (Production Example 2) was used as the compound under test.

Data set [2] concerns Microsporum canis (IFM63627). Kind of data set: Antifungal activity test, minimum fungicidal concentration (MFC100) on spores by treatment time. The data set is classed as cell-based. The following applies: read-out: Minimal fungicidal concentration (MFC100). The protocol:
Microsporum canis was cultured on a 1/10 Sabouraud medium at 32° C. for 168 hours to form spores. Then, 10 mL of physiological saline solution (OTSUKA NORMAL SALINE; containing the equivalent of 9 g of sodium chloride in 1000 mL) was directly added over the medium, and the surface was scraped with a disposable loop (Type 1 (1 μL) to collect a spore suspension containing mycelia. The spore suspension containing mycelia was filtered through a cell strainer ((40 μm). Spores were collected from a filtrate by centrifugation (3500 rpm, 5 minutes), and washed twice with physiological saline to prepare a spore suspension (1×10^7 cells/mL). 10 μL of the spore suspension was inoculated into 90 μL of physiological saline solution to which the compound under test dissolved in DMSO was added so as to have a predetermined concentration. Every time a predetermined time lapsed, 10 μL of a test solution containing spores was taken out. Spores were collected from the test solution thus taken out by centrifugation (3500 rpm, 5 minutes), and washed twice with physiological saline to prepare 10 μL of spore suspension. […]
A minimum fungicidal concentration (MFC100) for Microsporum canis (IMF63627) was determined in the same method as in Test Example 8 except that the hydrate crystal (Production Example 2) was used as the compound under test.

Data set [3] relates to Malassezia restricta (IFM55992). Kind of data set: Antifungal activity test, minimum fungicidal concentration (MFC100). The data set is classed as cell-based. The following applies: 1 minute contact, MLNA medium 32° C. for 72 hours, read-out: Minimal fungicidal concentration (MFC100). The method, then: A fungus of Malassezia (Malassezia restricta) that had been cultured on a CHROMagar (trademark) Malassezia/Candida raw medium (peptone, specialized enzyme-substrate mixture, chloramphenicol, olive oil, agar, manufactured by KANTO CHEMICAL CO., INC.) for 5 to 7 days was suspended in physiological saline to prepare so as to have an absorbance of 0.025 at 600 nm. The compound under test dissolved in DMSO was added thereto so as to have final concentrations of 200, 100, 50, and 25 ppm. 1 minute later, 10 μL of suspension and 10 mL of physiological saline were added to a syringe and stirred, and then the mixture was filtered by connecting to a 37 mm quality monitor (manufactured by Pall Corporation) and washed twice with 10 ml of physiological saline. The membrane filters were removed from the quality monitor, and placed and cultured on a Leeming & Notman agar Modified medium (MLNA medium) (peptone, glucose, yeast extract, dried bovine bile, glycerol, glycerin stearate, Tween 60, olive oil, agar) at 32° C. for 72 hours, and the presence or absence of the development of colonies was examined to determine a minimum fungicidal concentration MFC100). A minimum fungicidal concentration (MFC100) for Malassezia restricta (IFM55992) was determined in the same method as in Test Example 11 except that the hydrate crystal (Production Example 2) was used as the compound under test.

Data set [4] can be described thus: Karl Fischer moisture content measurement (volumetric titration method). The following applies: atmosphere of 25° C., as obtained. The data set is classed as physicochemical. The method, then:
The moisture content rates of the hydrate crystals obtained in Production Examples 1 and 2, and the anhydrous crystals used as a raw material in Production Example 1 were measured with a Karl Fischer moisture meter (CA-310, manufactured by Nittoseiko Analytech Co., Ltd.). The test was conducted in conformance with the description in The Japanese Pharmacopoeia, 18th Edition, “2.48 Water Determination (Karl Fischer Method)”, Volumetric titration. The measurement was performed in an atmosphere of 25° C., with the conditions set to a forced delay time of 2 minutes after sample administration, a minimum amount to be titrated of 2 μL, and an end point voltage of 140 mV. More specifically, it was as follows. First, into a measuring flask, methanol for moisture measurement (Aquamicron Dehydrated Solvent GEX, manufactured by Mitsubishi Chemical Corporation) was loaded, and 30 mg of water was added thereto to titrate the mixture with a Karl Fischer reagent (Aquamicron SS-Z, manufactured by Mitsubishi Chemical Corporation). After titration, a titer (mg/mL) of the reagent was determined from the amount titrated. Next, about 0.1 g of a measurement sample was precisely weighed and added into the measuring flask to titrate the mixture with a Karl Fischer reagent. The moisture content (w/w %) in the sample was calculated from the amount titrated and the previously determined titer.

In data set [5] the test system is Microsporum canis (IFM63627). Kind of data set: Antifungal activity test, minimum inhibitory concentration (MIC100). The data set is classed as cell-based. The conditions noted are these: Sabouraud medium, 32° C. for 72 hours. The protocol:
Microsporum canis was cultured on a 1/10 Sabouraud medium at 32° C. for 168 hours to form spores. Then, 10 mL of physiological saline solution (OTSUKA NORMAL SALINE; containing the equivalent of 9 g of sodium chloride in 1000 mL) was directly added over the medium, and the surface was scraped with a disposable loop (Type 1 (1 μL) to collect a spore suspension containing mycelia. The spore suspension containing mycelia was filtered through a cell strainer (+40 μm). Spores were collected from a filtrate by centrifugation (3500 rpm, 5 minutes), and washed twice with physiological saline to prepare a spore suspension (1×10^7 cells/mL). 10 μL of the spore suspension was inoculated into a Sabouraud medium to which the compound under test dissolved in DMSO was added so as to have a predetermined concentration. Microsporum canis was cultured at 32° C. for 72 hours, and then the presence or absence of the development of colonies was examined to determine a minimum inhibitory concentration (MIC100).
A minimum inhibitory concentration (MIC100) for Microsporum canis (IFM63627) was determined in the same method as in Test Example 7 except that the hydrate crystal (Production Example 2) was used as the compound under test.

One may read the MIC as the smallest concentration in the dilution series that meets the test's criterion for growth inhibition. Lower therefore signals inhibition by little substance.

In brackets after ≈: the same amount, converted by molar mass. Like-named read-outs stand apart in the source and are kept apart here.

Regarding `Cc1ccc(-c2nc(C#N)[nH]c2Cl)cc1Cl` [Anhydrous crystal, 5-chloro-4-(3-chloro-4-methylphenyl)-1H-imidazole-2-carbonitrile], the MIC in data set [1] and in data set [5] was 5 µg/mL (≈ 19.8 µM) throughout. Also, the MFC in data set [2] (treatment time 24 hours) was determined as 50 µg/mL (≈ 198 µM); in data set [2] (treatment time 96 hours), 10 µg/mL (≈ 39.7 µM); in data set [3] it was 200 µg/mL (≈ 793 µM). The “Karl Fischer moisture content” value in data set [4] worked out at 0.1 wt %.

The record behind these values is US20250026725A1, “HYDRATE CRYSTAL OF 5-CHLORO-4-(3-CHLORO-4- METHYLPHENYL)-1H-IMIDAZOLE-2-CARBONITRILE” (ISHIHARA SANGYO KAISHA, LTD., priority 2021, published 2025).
